# Experimental data as given in ChEMBL document CHEMBL3885881, “DrugMatrix”.
# Organism: Rattus norvegicus
# Assay: DrugMatrix - Regimen: Daily Repeat
# Format: toxicity, organism-based, Sprague-Dawley
# Design: regimen Daily Repeat, gender Male, age 6-8 weeks
# Details: in vivo, po, route oral GAVAGE, vehicle 100 % WATER; for ABSOLUTE BASOPHIL / ABSOLUTE EOSINOPHIL / ABSOLUTE LYMPHOCYTE / ABSOLUTE MONOCYTE / ABSOLUTE SEGMENTED NEUTROPHIL / BASOPHIL / EOSINOPHIL / ERYTHROCYTE COUNT / HEMATOCRIT / HEMOGLOBIN / LEUKOCYTE COUNT / LYMPHOCYTE / MEAN CORPUSCULAR HEMOGLOBIN / MEAN CORPUSCULAR HEMOGLOBIN CONCENTRATION / MEAN CORPUSCULAR VOLUME / MONOCYTE / NEUTROPHIL / NUCLEATED RED BLOOD CELLS / PLATELET COUNT: tissue Blood; for ALANINE AMINOTRANSFERASE / ALBUMIN / ALKALINE PHOSPHATASE / ASPARTATE AMINOTRANSFERASE / BLOOD UREA NITROGEN / CARBON DIOXIDE / CHLORIDE / CHOLESTEROL / CREATINE PHOSPHOKINASE / CREATININE / GLUCOSE / LACTATE DEHYDROGENASE / LIPASE / PHOSPHORUS / POTASSIUM / SODIUM / TOTAL BILIRUBIN / TOTAL PROTEIN / URIC ACID: tissue Plasma
# [1] = 15 mg/kg, 120 h, dose level Low, time 5 day
# [2] = 79 mg/kg, 72 h, dose level High, time 3 day
# [3] = 79 mg/kg, 120 h, dose level High, time 5 day
compound,measurement,setting,value
NNC(=O)c1ccncc1 [ISONIAZID],ABSOLUTE BASOPHIL,[1],0 CELLS/uL
same,ABSOLUTE EOSINOPHIL,[1],0 CELLS/uL
same,ABSOLUTE LYMPHOCYTE,[1],13245.33 CELLS/uL
same,ABSOLUTE MONOCYTE,[1],507 CELLS/uL
same,ABSOLUTE SEGMENTED NEUTROPHIL,[1],1614.33 CELLS/uL
same,BASOPHIL,[1],0%
same,EOSINOPHIL,[1],0%
same,ERYTHROCYTE COUNT,[1],5.42 x10E6/uL
same,HEMATOCRIT,[1],33.8%
same,HEMOGLOBIN,[1],12.8 G/DL
same,LEUKOCYTE COUNT,[1],15.37 x10E3/uL
same,LYMPHOCYTE,[1],85%
same,MEAN CORPUSCULAR HEMOGLOBIN,[1],23.67 pg
same,MEAN CORPUSCULAR HEMOGLOBIN CONCENTRATION,[1],37.9 G/DL
same,MEAN CORPUSCULAR VOLUME,[1],62.47 fL
same,MONOCYTE,[1],3.33%
same,NEUTROPHIL,[1],11.67%
same,NUCLEATED RED BLOOD CELLS,[1],0 /100WBC
same,PLATELET COUNT,[1],1239.67 x10E3/uL
same,ALANINE AMINOTRANSFERASE,[1],47 u/L
same,ALBUMIN,[1],4.33 G/DL
same,ALKALINE PHOSPHATASE,[1],384.67 u/L
same,ASPARTATE AMINOTRANSFERASE,[1],85 u/L
same,BLOOD UREA NITROGEN,[1],16.67 mg/dL
same,CARBON DIOXIDE,[1],23.67 mmol/L
same,CHLORIDE,[1],102.67 MEQ/L
same,CHOLESTEROL,[1],76 mg/dL
same,CREATINE PHOSPHOKINASE,[1],246.67 u/L
same,CREATININE,[1],0.47 mg/dL
same,GLUCOSE,[1],188.33 mg/dL
same,LACTATE DEHYDROGENASE,[1],93.67 u/L
same,LIPASE,[1],11 u/L
same,PHOSPHORUS,[1],11.47 mg/dL
same,POTASSIUM,[1],5.97 MEQ/L
same,SODIUM,[1],146 MEQ/L
same,TOTAL BILIRUBIN,[1],0.23 mg/dL
same,TOTAL PROTEIN,[1],6.3 G/DL
same,URIC ACID,[1],2.17 mg/dL
same,ABSOLUTE BASOPHIL,[2],0 CELLS/uL
same,ABSOLUTE EOSINOPHIL,[2],46.33 CELLS/uL
same,ABSOLUTE LYMPHOCYTE,[2],10642.67 CELLS/uL
same,ABSOLUTE MONOCYTE,[2],65.33 CELLS/uL
same,ABSOLUTE SEGMENTED NEUTROPHIL,[2],779 CELLS/uL
same,BASOPHIL,[2],0%
same,EOSINOPHIL,[2],0.33%
same,ERYTHROCYTE COUNT,[2],6 x10E6/uL
same,HEMATOCRIT,[2],38.67%
same,HEMOGLOBIN,[2],14.03 G/DL
same,LEUKOCYTE COUNT,[2],11.53 x10E3/uL
same,LYMPHOCYTE,[2],91.67%
same,MEAN CORPUSCULAR HEMOGLOBIN,[2],23.4 pg
same,MEAN CORPUSCULAR HEMOGLOBIN CONCENTRATION,[2],36.3 G/DL
same,MEAN CORPUSCULAR VOLUME,[2],64.47 fL
same,MONOCYTE,[2],0.67%
same,NEUTROPHIL,[2],7.33%
same,NUCLEATED RED BLOOD CELLS,[2],0 /100WBC
same,PLATELET COUNT,[2],1065.67 x10E3/uL
same,ALANINE AMINOTRANSFERASE,[2],19 u/L
same,ALBUMIN,[2],4.9 G/DL
same,ALKALINE PHOSPHATASE,[2],349 u/L
same,ASPARTATE AMINOTRANSFERASE,[2],74.33 u/L
same,BLOOD UREA NITROGEN,[2],22.67 mg/dL
same,CARBON DIOXIDE,[2],25.67 mmol/L
same,CHLORIDE,[2],101.67 MEQ/L
same,CHOLESTEROL,[2],80 mg/dL
same,CREATINE PHOSPHOKINASE,[2],463.67 u/L
same,CREATININE,[2],0.29 mg/dL
same,GLUCOSE,[2],227.33 mg/dL
same,LACTATE DEHYDROGENASE,[2],268 u/L
same,LIPASE,[2],9.67 u/L
same,PHOSPHORUS,[2],14.17 mg/dL
same,POTASSIUM,[2],7.15 MEQ/L
same,SODIUM,[2],146.23 MEQ/L
same,TOTAL BILIRUBIN,[2],0.13 mg/dL
same,TOTAL PROTEIN,[2],6.77 G/DL
same,URIC ACID,[2],3.97 mg/dL
same,ABSOLUTE BASOPHIL,[3],0 CELLS/uL
same,ABSOLUTE EOSINOPHIL,[3],53 CELLS/uL
same,ABSOLUTE LYMPHOCYTE,[3],13139.33 CELLS/uL
same,ABSOLUTE MONOCYTE,[3],527.33 CELLS/uL
same,ABSOLUTE SEGMENTED NEUTROPHIL,[3],647 CELLS/uL
same,BASOPHIL,[3],0%
same,EOSINOPHIL,[3],0.33%
same,ERYTHROCYTE COUNT,[3],5.87 x10E6/uL
same,HEMATOCRIT,[3],36.03%
same,HEMOGLOBIN,[3],13.4 G/DL
same,LEUKOCYTE COUNT,[3],14.37 x10E3/uL
same,LYMPHOCYTE,[3],91.67%
same,MEAN CORPUSCULAR HEMOGLOBIN,[3],22.8 pg
same,MEAN CORPUSCULAR HEMOGLOBIN CONCENTRATION,[3],37.17 G/DL
same,MEAN CORPUSCULAR VOLUME,[3],61.33 fL
same,MONOCYTE,[3],3.67%
same,NEUTROPHIL,[3],4.33%
same,NUCLEATED RED BLOOD CELLS,[3],0.33 /100WBC
same,PLATELET COUNT,[3],1389.67 x10E3/uL
same,ALANINE AMINOTRANSFERASE,[3],28 u/L
same,ALBUMIN,[3],4.37 G/DL
same,ALKALINE PHOSPHATASE,[3],359.67 u/L
same,ASPARTATE AMINOTRANSFERASE,[3],83.67 u/L
same,BLOOD UREA NITROGEN,[3],17 mg/dL
same,CARBON DIOXIDE,[3],24.67 mmol/L
same,CHLORIDE,[3],102.33 MEQ/L
same,CHOLESTEROL,[3],63.67 mg/dL
same,CREATINE PHOSPHOKINASE,[3],505 u/L
same,CREATININE,[3],0.21 mg/dL
same,GLUCOSE,[3],173 mg/dL
same,LACTATE DEHYDROGENASE,[3],177.33 u/L
same,LIPASE,[3],10.33 u/L
same,PHOSPHORUS,[3],12.07 mg/dL
same,POTASSIUM,[3],6.62 MEQ/L
same,SODIUM,[3],143.8 MEQ/L
same,TOTAL BILIRUBIN,[3],0.17 mg/dL
same,TOTAL PROTEIN,[3],6.3 G/DL
same,URIC ACID,[3],2.17 mg/dL
